Laboratory results: ChEMBL document CHEMBL2074483, “Multidrug-resistance protein 5 is a multispecific organic anion transporter able to transport nucleotide analogs” (Proc Natl Acad Sci U S A, 2000)

Tests used:
[1] = target: T1, ATP-binding cassette sub-family C member 5 (Homo sapiens, UniProt O15440); experiment: TP_TRANSPORTER: efflux in MRP5-expressing MDCKII cells; type: functional, cell-based; settings: dog, mdck-ii
[2] = target: T1, ATP-binding cassette sub-family C member 5; experiment: TP_TRANSPORTER: inhibition of PMEA efflux (PMEA: 1 uM) in MRP5-expressing MDCKII cells; type: functional, cell-based, MDCK-II

T1 sequence (O15440 whole entry): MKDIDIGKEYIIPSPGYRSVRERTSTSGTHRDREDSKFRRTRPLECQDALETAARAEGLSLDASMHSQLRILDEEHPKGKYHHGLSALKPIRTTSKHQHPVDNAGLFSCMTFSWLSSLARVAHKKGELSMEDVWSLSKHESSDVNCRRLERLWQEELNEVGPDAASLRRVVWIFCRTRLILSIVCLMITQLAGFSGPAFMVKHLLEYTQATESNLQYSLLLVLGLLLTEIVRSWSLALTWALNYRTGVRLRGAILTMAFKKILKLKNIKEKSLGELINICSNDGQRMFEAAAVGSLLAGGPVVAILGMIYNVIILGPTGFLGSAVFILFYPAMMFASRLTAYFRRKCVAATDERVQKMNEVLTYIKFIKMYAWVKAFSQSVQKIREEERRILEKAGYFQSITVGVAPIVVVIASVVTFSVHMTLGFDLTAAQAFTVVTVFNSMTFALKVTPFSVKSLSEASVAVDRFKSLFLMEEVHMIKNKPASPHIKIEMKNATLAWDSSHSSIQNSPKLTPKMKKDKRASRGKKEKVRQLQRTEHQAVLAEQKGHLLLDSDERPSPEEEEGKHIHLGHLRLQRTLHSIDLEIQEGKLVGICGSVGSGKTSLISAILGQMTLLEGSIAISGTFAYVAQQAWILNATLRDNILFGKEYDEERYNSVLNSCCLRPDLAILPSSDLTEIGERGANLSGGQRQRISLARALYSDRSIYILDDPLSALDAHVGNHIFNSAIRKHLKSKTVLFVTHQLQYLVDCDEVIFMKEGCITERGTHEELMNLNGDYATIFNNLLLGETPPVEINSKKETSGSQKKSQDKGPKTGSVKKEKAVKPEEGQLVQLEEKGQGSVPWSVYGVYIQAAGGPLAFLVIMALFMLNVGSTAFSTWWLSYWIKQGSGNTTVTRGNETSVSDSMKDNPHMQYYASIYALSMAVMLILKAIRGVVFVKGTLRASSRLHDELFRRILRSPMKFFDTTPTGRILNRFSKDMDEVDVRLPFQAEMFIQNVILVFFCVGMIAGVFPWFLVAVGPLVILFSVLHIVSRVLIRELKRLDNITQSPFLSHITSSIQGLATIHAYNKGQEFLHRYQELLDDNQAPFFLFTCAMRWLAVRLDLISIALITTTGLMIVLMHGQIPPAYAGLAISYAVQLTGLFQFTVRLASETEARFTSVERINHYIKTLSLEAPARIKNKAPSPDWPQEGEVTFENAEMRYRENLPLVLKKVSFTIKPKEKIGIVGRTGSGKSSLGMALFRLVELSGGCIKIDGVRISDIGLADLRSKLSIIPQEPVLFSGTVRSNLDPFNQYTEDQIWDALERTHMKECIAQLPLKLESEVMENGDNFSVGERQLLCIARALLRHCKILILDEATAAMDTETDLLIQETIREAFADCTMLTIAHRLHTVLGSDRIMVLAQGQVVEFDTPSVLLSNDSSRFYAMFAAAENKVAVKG

With `Nc1ncnc2c1ncn2CCOCP(=O)(O)O` [ADEFOVIR] the Activity [1] was “substrate [+]”.
For `Sc1ncnc2nc[nH]c12` [MERCAPTOPURINE ANHYDROUS], the Activity [1] was “substrate [+]”.
With `O=C1C(CC[S+]([O-])c2ccccc2)C(=O)N(c2ccccc2)N1c1ccccc1` (stereo not drawn) [SULFINPYRAZONE] the IC50 [2] was < 100 µM.
